Data taken from the supplement of paper PMC10627819.

Columns and labels:
[1] = system: S. pneumoniae D39V; assay: fitness (endpoint OD595 vs no drug) (fraction); higher = more growth
Summary of the method: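 Plates with 384 wells were inoculated at OD595 0.01 using 30 µl of TSB, LB Lennox or CY, or 55 µl for S. pneumoniae. Incubation was at 37 °C, with OD595 measured every 30 min for 14 h. Fitness is the stationary-phase transition optical density over the robust mean of no-drug control wells, after first-reading background subtraction; it is capped at 1.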

[2] = system: S. aureus Newman; assay: Bliss interaction score (quartile over a dose matrix) (fitness difference); higher = more antagonism (negative = synergy)
Summary of the method: (§1)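 Fitness is OD595 at stationary-phase entry relative to the plate's robust no-drug mean, capped at 1. Single-drug fitness was inferred from combinations. The Bliss score is observed minus product-expected fitness, summarised by quartiles over technical, biological and donor/recipient replicates.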

[3] = system: B. subtilis 168; assay: as above
Summary of the method: as §1

[4] = system: S. pneumoniae D39V; assay: as above
Summary of the method: as §1

[5] = system: S. aureus DSM 20231; assay: as above
Summary of the method: as §1
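Throughout, for Bliss interaction score (quartile over a dose matrix): first quartile when negative (synergy) and third quartile when positive (antagonism).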

CC[C@H]1OC(=O)[C@H](C)[C@@H](O[C@H]2C[C@@](C)(OC)[C@@H](O)[C@H](C)O2)[C@H](C)[C@@H](O[C@@H]2O[C@H](C)C[C@H](N(C)C)[C@H]2O)[C@](C)(OC)C[C@@H](C)C(=O)[C@H](C)[C@@H](O)[C@]1(C)O [Clarithromycin] + C[n+]1ccc(-c2cc[n+](C)cc2)cc1 [Paraquat]
fitness, [1], one replicate
Conditions | first compound 0.007812 µg/mL | first compound 0.01562 µg/mL | first compound 0.03125 µg/mL | first compound 0.0625 µg/mL | first compound 0.125 µg/mL | first compound 0.25 µg/mL
partner 1.5 µg/mL | 0.899 | 0.836 | 0.603 | 0.771 | 0.597 | 0.274
partner 3 µg/mL | 0.918 | 0.871 | 0.62 | 0.788 | 0.684 | 0.324
partner 6 µg/mL | 0.909 | 0.816 | 0.657 | 0.837 | 0.708 | 0.345

fitness, [1]
Conditions | first compound 0.07 µg/mL | first compound 0.14 µg/mL | first compound 0.28 µg/mL
partner 1.5 µg/mL | 0.171 | 0.129 | 0.0703
partner 3 µg/mL | 0.171 | 0.103 | 0.0937
partner 6 µg/mL | 0.164 | 0.126 | 0.0698

Conditions | Bliss interaction score
[2] | -0.0377
[3] | -0.0322
[4] | 0.0803
[5] | -0.0525

C[C@@H](O)[C@H]1C(=O)N2C(C(=O)O)=C(SCCNC=N)C[C@H]12 [Imipenem] + CC(=O)NC[C@H]1CN(c2ccc(N3CCOCC3)c(F)c2)C(=O)O1 [Linezolid]
fitness, [1]
Conditions | first compound 0.005 µg/mL | first compound 0.0065 µg/mL | first compound 0.01 µg/mL | first compound 0.013 µg/mL | first compound 0.02 µg/mL | first compound 0.026 µg/mL
partner 0.105 µg/mL | 0.845 | – | 0.837 | – | 0.833 | –
partner 0.2 µg/mL | – | 0.7 | – | 0.775 | – | 0.71
partner 0.21 µg/mL | 0.752 | – | 0.727 | – | 0.701 | –
partner 0.4 µg/mL | – | 0.506 | – | 0.592 | – | 0.494
partner 0.42 µg/mL | 0.6 | – | 0.47 | – | 0.578 | –
partner 0.8 µg/mL | – | 0.116 | – | 0.225 | – | 0.148

Conditions | Bliss interaction score
[2] | 0.0656
[3] | 0.128
[4] | -0.109
[5] | 0.0377

CC[C@H]1OC(=O)[C@H](C)[C@@H](O[C@H]2C[C@@](C)(OC)[C@@H](O)[C@H](C)O2)[C@H](C)[C@@H](O[C@@H]2O[C@H](C)C[C@H](N(C)C)[C@H]2O)[C@](C)(OC)C[C@@H](C)C(=O)[C@H](C)[C@@H](O)[C@]1(C)O [Clarithromycin] + CCC(C)C1C(=O)NC(=C)C(=O)NC(C(=O)NC(CSCC(C(=O)N1)NC(=O)/C(=C/C)/NC(=O)C(C(C)CC)N)C(=O)NC2C(SCC(NC(=O)CNC(=O)C3CCCN3C2=O)C(=O)NC(CCCCN)C(=O)NC4C(SCC(NC(=O)CNC(=O)C(NC(=O)C(NC(=O)C(NC(=O)CNC4=O)C)CC(C)C)CCSC)C(=O)NC(CC(=O)N)C(=O)NC(CCSC)C(=O)NC(CCCCN)C(=O)NC5C(SCC6C(=O)NC(C(=O)NC(CSC(C(C(=O)N6)NC(=O)C(NC5=O)C)C)C(=O)NC(CO)C(=O)NC(C(C)CC)C(=O)NC(CC7=CN=CN7)C(=O)NC(C(C)C)C(=O)NC(=C)C(=O)NC(CCCCN)C(=O)O)CC8=CN=CN8)C)C)C)CC(C)C [Nisin]
fitness, [1], one replicate, main component drawn
Conditions | first compound 0.007812 µg/mL | first compound 0.01562 µg/mL | first compound 0.03125 µg/mL
partner 1.6 µg/mL | 0.0546 | 0.105 | 0.0716
partner 3.2 µg/mL | 0.0468 | 0.0811 | 0.0837
partner 6.4 µg/mL | 0.0495 | 0.123 | 0.0731

[1], main component drawn
Conditions | fitness
first compound 0.0625 µg/mL, partner 0.4275 µg/mL | 0.704
first compound 0.0625 µg/mL, partner 1.71 µg/mL | 0.0947
first compound 0.07 µg/mL, partner 1.6 µg/mL | 0.0167
first compound 0.07 µg/mL, partner 3.2 µg/mL | 0.0245
first compound 0.07 µg/mL, partner 6.4 µg/mL | 0.0168
first compound 0.125 µg/mL, partner 0.4275 µg/mL | 0.233
first compound 0.125 µg/mL, partner 0.855 µg/mL | 0.118
first compound 0.125 µg/mL, partner 1.71 µg/mL | 0.0991
first compound 0.14 µg/mL, partner 1.6 µg/mL | 0.019
first compound 0.14 µg/mL, partner 3.2 µg/mL | 0.0272
first compound 0.14 µg/mL, partner 6.4 µg/mL | 0.0323
first compound 0.25 µg/mL, partner 0.4275 µg/mL | 0.0872
first compound 0.25 µg/mL, partner 0.855 µg/mL | 0.0757
first compound 0.25 µg/mL, partner 1.71 µg/mL | 0.0969
first compound 0.28 µg/mL, partner 1.6 µg/mL | 0.0103
first compound 0.28 µg/mL, partner 3.2 µg/mL | 0.0421
first compound 0.28 µg/mL, partner 6.4 µg/mL | 0.0171

main component drawn
Conditions | Bliss interaction score
[2] | -0.0489
[3] | 0.0377
[4] | 0.0379
[5] | -0.0781

CC[C@H]1OC(=O)[C@H](C)[C@@H](O[C@H]2C[C@@](C)(OC)[C@@H](O)[C@H](C)O2)[C@H](C)[C@@H](O[C@@H]2O[C@H](C)C[C@H](N(C)C)[C@H]2O)[C@](C)(OC)C[C@@H](C)C(=O)[C@H](C)[C@@H](O)[C@]1(C)O [Clarithromycin] + CC(=O)NC[C@H]1CN(c2ccc(N3CCOCC3)c(F)c2)C(=O)O1 [Linezolid]
fitness, [1], one replicate
Conditions | first compound 0.007812 µg/mL | first compound 0.01562 µg/mL | first compound 0.03125 µg/mL
partner 0.2 µg/mL | 0.728 | 0.709 | 0.581
partner 0.4 µg/mL | 0.565 | 0.609 | 0.452
partner 0.8 µg/mL | 0.277 | 0.314 | 0.193

fitness, [1]
Conditions | first compound 0.0625 µg/mL | first compound 0.07 µg/mL | first compound 0.125 µg/mL | first compound 0.14 µg/mL | first compound 0.25 µg/mL | first compound 0.28 µg/mL
partner 0.105 µg/mL | 0.637 | – | 0.35 | – | 0.111 | –
partner 0.2 µg/mL | – | 0.0674 | – | 0.0794 | – | 0.0498
partner 0.21 µg/mL | 0.533 | – | 0.269 | – | 0.0783 | –
partner 0.4 µg/mL | – | 0.0735 | – | 0.0846 | – | 0.0492
partner 0.42 µg/mL | 0.326 | – | 0.163 | – | 0.101 | –
partner 0.8 µg/mL | – | 0.0543 | – | 0.0384 | – | 0.0345

Conditions | Bliss interaction score
[2] | -0.119
[3] | -0.0553
[4] | -0.0363
[5] | -0.135
